We go through 2 compounds from patent EP1608650B1, “PYRENE-LINKED PYRROLO(2,1-C)(1,4)BENZODIAZEPINE DERIVATIVES USEFUL AS ANTICANCER AGENTS” (Council of Scientific and Industrial Research, priority 2003, dated 2004).

For one data set, the system named is (Lung) NCI-H460. Put plainly: In vitro one dose primary anticancer assay (NCI). The class given is cell-based, human. Particulars: one dose at 10^-4 molar concentration.
The subject of the next data set is (Breast) MCF7. The experiment in a line: In vitro one dose primary anticancer assay (NCI). The data set is classed as cell-based, human. Particulars: one dose at 10^-4 molar concentration.
For another data set, the system named is (CNS) SF-268. Put plainly: In vitro one dose primary anticancer assay (NCI). Particulars: one dose at 10^-4 molar concentration. The data set is classed as cell-based, human.
For the next data set, the system named is human tumour cell lines. Put plainly: cells. The procedure:
(§1) In vitro biological activity studies were carried out at National Cancer Institute (USA).
(§2) For each compound, dose response curves for each cell line were measured at a minimum of five concentrations at 10 fold dilutions. A protocol of 48 h continuous drug exposure was used and a sulforhodamine B (SRB) protein assay was used to estimate cell viability or growth. […]

The test system of a further data set is Breast. Particulars: average of six to nine different cancer cell lines, log value. How it is done:
as §1, §2
(§3) Each cancer type represents the average of six to nine different cancer cell lines.

A further data set relates to CNS. Particulars: average of six to nine different cancer cell lines, log value. The procedure:
as §1, §2, §3

The subject of a further data set is Colon. Particulars: average of six to nine different cancer cell lines, log value. How it is done:
as §1, §2, §3

In another data set the test system is Leukemia. Particulars: average of six to nine different cancer cell lines, log value. How it is done:
as §1, §2, §3

Another data set concerns Melanoma. Particulars: average of six to nine different cancer cell lines, log value. How it is done:
as §1, §2, §3

The next data set deals with Non-small-cell lung. Particulars: average of six to nine different cancer cell lines, log value. The procedure: as §1, §2, §3
Another data set has as its system Ovarian. Particulars: average of six to nine different cancer cell lines, log value. The procedure:
as §1, §2, §3

The test system of another data set is Prostate. Particulars: average of six to nine different cancer cell lines, log value. How it is done: as §1, §2, §3
For another data set, the system named is Renal. Particulars: average of six to nine different cancer cell lines, log value. How it is done: as §1, §2, §3
The test system of data set [1] is CNS cancer cell lines (SNB75). Particulars: read-out: potency (at the LC50 level). The procedure:
as §1, §2

The test system of the next data set is colon cancer (HCC-2998). Particulars: read-out: potency (at the LC50 level). How it is done: as §1, §2
For a further data set, the system named is leukemia cancer (SR). Particulars: read-out: potency (at the LC50 level). How it is done:
as §1, §2

A further data set concerns melanoma cancer (M14). Particulars: read-out: potency (at the LC50 level). The procedure: as §1, §2
The test system of data set [2] is non-small cell lung cancer (NCI-H226). Particulars: read-out: potency (at the LC50 level). The procedure:
as §1, §2

For the next data set, the system named is prostate cancer (DU-145). Particulars: read-out: potency (at the LC50 level). How it is done:
as §1, §2

The next data set concerns renal cancer (A498). Particulars: read-out: potency (at the LC50 level). How it is done:
as §1, §2

What is called GI50 is the concentration at which growth is held to half of that of the control. In the case of `COc1cc2c(cc1OCCCC(=O)Nc1ccc3ccc4cccc5ccc1c3c45)N=C[C@@H]1CCCN1C2=O` [Ve, 7-Methoxy-8-[N-(1"-pyrenyl)-propane-3'-carboxamide]-oxy-(11aS)-1,2,3,11atetra-hydro-5H-pyrrolo[2,1-c][1,4]benzodiazepin-5-one], the “Growth percentages (Lung) NCI-H460” value with (Lung) NCI-H460 is reported as 11. The “Growth percentages (Breast) MCF7” value in the data set on (Breast) MCF7 is 31. Further, in the data set on (CNS) SF-268, the “Growth percentages (CNS) SF-268” value is 70. For the same compound, in the data set on human tumour cell lines (Homo sapiens, 48 h, read-out: Log10 GI50 (converted)), the concentration for 50% growth inhibition (GI50) was 0.0178 µM. Also, the “Log10 LC50” value in the data set on human tumour cell lines (mean graph midpoint (MG_MID), 48 h continuous drug exposure, 50% cell death) was -4.74. For the same compound, the “Log10 TGI” value in the data set on human tumour cell lines (mean graph midpoint (MG_MID), 48 h continuous drug exposure, total cell growth inhibition) was -6.89. Besides, the “Log LC50 (concentration in mol/L causing 50% lethality)” value with Breast is more than -4.00 mol/L; in the data set with CNS, -5.23 mol/L; with Colon, -5.00 mol/L; in the data set on Leukemia, -4.65 mol/L; with Melanoma, -5.62 mol/L; in the data set on Non-small-cell lung, -4.67 mol/L. The “Log LC50 (concentration in mol/L causing 50% lethality)” value in the data set with Ovarian is reported as more than -4.00 mol/L; with Prostate, -5.30 mol/L; in the data set on Renal it was -5.05 mol/L. In addition, the CC50 was 10 µM in [1]; 0.01 µM in the data set with colon cancer (HCC-2998); 0.1 µM in the data set with leukemia cancer (SR); 0.1 µM in the data set on melanoma cancer (M14); 0.01 µM in data set [2]; 10 µM in the data set on prostate cancer (DU-145). In the data set on renal cancer (A498), the CC50 stood at 0.1 µM.
For the compound “7-Methoxy-8-[N-(1"-pyrenyl)-butne-4'-carboxamide]-oxy-(11aS)-1,2,3,11a-tetra-hydro-5H-pyrrolo[2,1-c][1,4]benzodiazepin-5-one [Vg]”, the “Growth percentages (Lung) NCI-H460” value in the data set on (Lung) NCI-H460 stood at 106. Further, the “Growth percentages (Breast) MCF7” value in the data set with (Breast) MCF7 was found to be 72. Besides, the “Growth percentages (CNS) SF-268” value in the data set on (CNS) SF-268 was found to be 131.
